{
  "source": "patent US20160324884A1",
  "about": "“TREATMENT OF DIABETES WITH PENTACYCLIC TRITERPENOID SAPONIN COMPOUNDS FROM SZECHUAN MELANDIUM ROOT” (priority 2013, published 2016)",
  "type_in_all_cases": "in vivo",
  "key": {"[1]": {"test_system": "KK^Ay mice", "assay": "Glycemia in KK^Ay mice during treatment and after withdrawal (Example 3)", "excerpt": "(§1) 60 male KK^Ay mice (12 weeks of age, License NO. SCXK (BJ) 2009-0015, Beijing Huafukang Biology Technology Co. Ltd.) and 10 normal male C57BL/6 mice (12 weeks of age, License NO. SCXK (BJ) 2009-0015, Beijing Huafukang Biology Technology Co. Ltd.) were adaptively bred for one week, and then used in the following experiment.\n(§2) 60 KK^Ay mice were adaptively bred for 1 week, and then randomly assigned into 6 groups: Model group, Compound (1) group, Compound (2) group, Compound (3) group, Compound (4) group, and metformin group, 10 mice per group. 10 normal C57BL/6 mice were used for the control group. KK^Ay mice were in a high-fat diet, and the control normal mice were in a normal control diet. The control and model groups were hypodermically injected with sterile water, the 6 medicated groups mice were subcutaneously injected with […] Wacao saponins, (Compounds (1), (2), (3) and (4)) respectively, and the positive group was administered metformin by gavage. All mice were administrated at 9 am for 2 weeks and the administration volume is 10 ml/kg BW.\n(§3) Compound (1), (2), (3) and (4) were respectively dissolved into sterile water, and sterilized with filtration for Sc. to the medication groups. The metformin was dissolved into sterile water for lg. to the positive control group. Control and model groups animals were injected with sterile water (10 ml/kg BW), Sc. All the animals were treated daily at 9 am for 2 weeks (14 days).\n(§4) Blood detection: Blood glucose was measured weekly. Overnight fasting glycemia level was measured with One Touch ULTRA Glucometer for the tail blood test. At the end of the experiment, blood serum was collected for measuring levels of fasting blood glucose and insulin, and the insulin sensitivity index (ISI) was calculated. At the same time, hepatic tissues and skeletal muscles of mice were taken out to determine levels of hepatic and muscle glycogen by detection kits.\nTermination of the experiment After administrating mice for 2 weeks (14 days), the experiment was terminated.\nThis experiment is to observe the anti-hyperglycemia effects of Wacao saponins on KK^Ay mice during and after the period of drug treatment, respectively."}, "[2]": {"test_system": "KK^Ay mice", "assay": "Blood insulin content and insulin sensitivity index (ISI) in KK^Ay mice (Example 3)", "settings": "serum, after 2 weeks treatment, vs model group", "excerpt": "as §2\nThe body weight, food and water intake of each mouse was measured and recorded weekly throughout the course of the experiment. At the end of the experiment, collected the blood and separated serum, fasting blood glucose, insulin levels and insulin sensitivity index (ISI) were measured or calculated in each group. […]\nas §4, with “At the same time, hepatic tissues and skeletal muscles of mice were taken out to determine levels of hepatic and muscle glycogen by detection kits.” left out"}, "[3]": {"test_system": "KK^Ay mice", "assay": "Effects of Wacao saponins on glycemia in KK^Ay T2DM mice (Example 2)", "excerpt": "as §1, with “80” for “60”, “10 male” for “10”, “normal” for “normal male”, “pharmacological” for “following”\nThe animals were housed individually in wood-chip-bedded plastic cages. Germ-free and high-fat diets (Beijing Huafukang Biology Technology Co. Ltd.) were used to feed the KK^Ay mice, and the standard laboratory chows were used to feed normal C57BL/6 mice. All the animals had free access to food and water.\n80 KK^Ay mice were adaptively bred for 1 week, and then randomly assigned into 8 groups: Model group, Compound (1) group, Compound (2) group, Compound (3) group, Compound (4) group, Compound (7) group, Compound (8) group and metformin group, 10 mice per group. 10 normal C57BL/6 mice were used as the control group. KK^Ay mice were fed with the high-fat diet, and the control group was fed with the normal control diet. The control and model groups were hypodermically injected with sterile water, 6 medicated groups were hypodermically injected with 6 kinds of Wacao saponins, the Compounds (1), (2), (3), (4), (7) and (8), and the positive group (metformin group) was irrigated per oral. All groups were administrated at 9 am for 2 weeks. The administrating volume is 10 ml/kg BW and the administration dosage is shown in Table3.\nAll mice of the fasting tail blood glucose level were measured weekly using One Touch ULTRA Glucometer (Life Scan Johnson and Johnson, USA).\nEach compound of Wacao saponins was dissolved into sterile water and sterilized with filtration for Sc. The metformin was dissolved into sterile water for lg. The control and model group mice were injected with sterile water, Sc. All the animals were treated at 9 am for 2 weeks.\nOvernight fasting tail blood glucose level was measured weekly using One Touch ULTRA Glucometer and measured for twice.\nEach group was administrated for 2 weeks (14 days) and then the experiment was terminated.\nResults are expressed as means±SD. Statistical analysis were analyzed by using SPSS 10.0 software. Data were evaluated with analysis of variance."}, "[4]": {"test_system": "KK^Ay mice", "assay": "Body weight, food and water intake in KK^Ay mice (Example 3)", "settings": "vs model group", "excerpt": "as §1\nThe animals were housed individually in wood-chip-bedded plastic cages. Germ-free and high-fat diets (Beijing Huafukang Biology Technology Co. Ltd.) were used to feed the KK^Ay mice. All the animals had free access to food and water.\nas §2\n(§5) The body weight, food and water intake of each mouse was measured and recorded weekly throughout the course of the experiment. At the end of the experiment, collected the blood and separated serum, fasting blood glucose, insulin levels and insulin sensitivity index (ISI) were measured or calculated in each group. Liver, skeletal muscles of mice in each group were taken and weighed for detecting glycogen levels of the hepatic and muscles after mice being killed.\nas §3\nMeasurement of food and water intake: 24 hours' food and water intake were measured by gravimetry once a week. It should be paid attention to recycling leakage of small forage into the feed box to ensure the accuracy of food intake.\nDetermination of body weight: The body weight of mice was measured and recorded once a week.\nResults are shown as means±SD. Statistical analysis data were analyzed by using SPSS 10.0 software. Data were evaluated with analysis of variance."}, "[5]": {"test_system": "KK^Ay mice", "assay": "Hepatic and muscle glycogen in KK^Ay mice (Example 3)", "settings": "2.0 mg/kg Sc, after 2 weeks, vs model group", "excerpt": "as §2, §5, §3, §4"}},
  "data": [
    {"smiles": "COC(=O)C1OC(O[C@H]2CC[C@]3(C)[C@H]4C=CC5[C@@H]6CC(C)(C)CC[C@]6(C(=O)OC6OC(C)C(OC(=O)/C=C\\c7ccc(C)cc7)C(OC(C)=O)C6OC6OC(C)C(O)C(O)C6O)[C@H](O)C[C@@]5(C)[C@]4(C)CC[C@H]3[C@]2(C)C=O)C(OC2OC(CO)C(O)C(O)C2O)C(OC2OCC(O)C(O)C2O)C1O", "note": "(stereo partly drawn) [Compound (4), sinocrassuloside IX]", "values": [
      {"measurement": "anti-hyperglycemia effect compared with metformin", "setting": "[1]; KK^Ay mice, 2.0 mg/kg Sc vs metformin 500 mg/kg lg", "value": "all treatment groups except Compound (4) had stronger anti-hyperglycemia effects than that of metformin"},
      {"measurement": "glycemia level", "setting": "[1]; KK^Ay mice, after 1 week, compounds 2.0 mg/kg Sc, metformin 500 mg/kg lg, vs model group", "value": "each treatment group, except the Compound (4) group, showed a significantly decrease"},
      {"measurement": "descending rates of blood glucose", "setting": "[1]; T2DM mice, 2 mg/kg, two weeks after subcutaneous injection", "value": 50, "unit": "%"},
      {"measurement": "insulin level", "setting": "[2]", "value": "all groups except Compound (4) increased significantly"},
      {"measurement": "glycemia (fasting tail blood glucose), hypoglycemic activity", "setting": "[3]; 2.0 mg/kg BW Sc daily, after 1 week, vs model group", "value": "then followed by Compound (2), Compound (4), Compound (3) and Compound (7)"},
      {"measurement": "anti-hyperglycemia effect, compounds compared with each other", "setting": "[3]; 2.0 mg/kg BW Sc, 2 weeks, ranking", "value": "followed by Compound (3) and (4) (cis-trans-isomers), and Compound (7)"},
      {"measurement": "food intake", "setting": "[4]; after 2 weeks, compounds 2.0 mg/kg Sc, metformin 500 mg/kg lg", "value": "except the Compound (4) group, mice in all groups showed obvious reduction in food intake"},
      {"measurement": "water intake", "setting": "[4]; week 1, 2.0 mg/kg Sc", "value": "decreased significantly (p<0.05 or p<0.01, vs. model group), except Compound (4) group in week 1"},
      {"measurement": "muscle glycogen level", "setting": "[5]", "value": "weaker efficacy in raising level of muscle glycogen which had no statistical significant difference compared with that of the model group"}
    ]}
  ]
}
